# Molecular target: DNA primase DnaG (Escherichia coli) (UniProt P0ABS5)
# Test: Inhibition of Escherichia coli DNA primase after 1 hr by [3H]rNTPs incorporation assay
# Chain of DNA primase DnaG (Escherichia coli) (P0ABS5 whole entry, looked up): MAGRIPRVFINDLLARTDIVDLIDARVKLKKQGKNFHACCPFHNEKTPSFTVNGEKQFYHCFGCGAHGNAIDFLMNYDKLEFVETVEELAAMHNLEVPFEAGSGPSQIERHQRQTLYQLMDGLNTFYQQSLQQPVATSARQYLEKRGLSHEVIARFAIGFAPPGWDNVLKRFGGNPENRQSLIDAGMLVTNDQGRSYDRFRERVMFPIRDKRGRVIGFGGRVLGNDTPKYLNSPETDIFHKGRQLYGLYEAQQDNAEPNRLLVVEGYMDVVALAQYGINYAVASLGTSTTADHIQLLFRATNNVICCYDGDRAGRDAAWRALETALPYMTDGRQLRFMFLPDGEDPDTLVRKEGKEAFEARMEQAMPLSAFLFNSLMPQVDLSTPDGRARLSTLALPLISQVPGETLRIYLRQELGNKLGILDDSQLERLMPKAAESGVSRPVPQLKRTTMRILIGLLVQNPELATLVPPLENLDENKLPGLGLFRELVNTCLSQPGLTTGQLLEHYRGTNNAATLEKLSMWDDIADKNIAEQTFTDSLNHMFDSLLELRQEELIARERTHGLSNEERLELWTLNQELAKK
compound,measurement,value
"C[C@H]1CCCC[C@H]2C(=O)C=C[C@H](O)[C@@H]2CC(=O)O1 [(4S,8aR,12S,12aR)-12-hydroxy-4-methyl-4,5,6,7,8,8a-hexahydro-1H-benzo[d]oxecine-2,9(12H,12aH)-dione]",EC50,70 µM

# — BindingDB's records for doi:10.1021/np0302302 (Schering-Plough Research Institute, 2003)
